From US8575203B2, “Chemical compounds” (Boehringer Ingelheim International GmbH, priority 2010, dated 2013)

Molecular target: Recombinant human PDK1 enzyme (aa 52-556) (Homo sapiens (Human), UniProt O15530)
Experiment: PDK1 kinase assay
Assay type: biochemical
Conditions: in vitro kinase assay, His6-PDK1 (aa 52-556), PDKtide, P33-ATP
Summary of the method: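 Radiometric filter-binding read-out after H3PO4 stop. The reaction ran 90 min at RT, started with a 25 μM ATP/γ-33P-ATP solution, after 30 min RT preincubation of the compound series (10 μM top, 1:5 dilutions) with N-His6 PDK1 aa 52-556 (insect-cell expressed, 3.33 ng/well) and 25 μM final PDKtide.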

Sequence of Recombinant human PDK1 enzyme (aa 52-556) (O15530 52-556): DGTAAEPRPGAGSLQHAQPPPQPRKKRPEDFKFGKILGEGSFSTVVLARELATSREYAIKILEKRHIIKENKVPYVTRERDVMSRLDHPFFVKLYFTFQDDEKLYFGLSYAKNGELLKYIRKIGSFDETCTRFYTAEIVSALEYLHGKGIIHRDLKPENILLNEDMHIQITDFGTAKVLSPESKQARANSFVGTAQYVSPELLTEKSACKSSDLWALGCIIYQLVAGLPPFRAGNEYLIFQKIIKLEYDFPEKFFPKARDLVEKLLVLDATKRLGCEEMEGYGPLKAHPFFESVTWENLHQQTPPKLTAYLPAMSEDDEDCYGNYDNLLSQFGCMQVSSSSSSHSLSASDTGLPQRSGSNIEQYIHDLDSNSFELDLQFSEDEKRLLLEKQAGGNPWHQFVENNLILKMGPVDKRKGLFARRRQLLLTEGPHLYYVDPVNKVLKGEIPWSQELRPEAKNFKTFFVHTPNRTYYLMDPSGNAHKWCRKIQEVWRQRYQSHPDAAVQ

| IC50 | Structure (SMILES) |
| --- | --- |
| 8 nM | CCN(CC)c1ncnc2ccc(C#CCNC(=O)c3cc(Cl)nn(Cc4ccc(F)c(F)c4)c3=O)cc12 [II-43] |
| 40 nM | CN(Cc1cnn(-c2ccc(F)cc2)c1)c1ncnc2ccc(C#CCNC(=O)c3cccn(Cc4ccc(F)c(F)c4)c3=O)cc12 [II-44] |
| 63 nM | COc1cccc(CN(C)c2ncnc3ccc(C#CCNC(=O)c4cccn(Cc5ccc(F)c(F)c5)c4=O)cc23)c1 [II-45] |
| 6 nM | CN(Cc1cccc2ncccc12)c1ncnc2ccc(C#CCNC(=O)c3cccn(Cc4ccc(F)c(F)c4)c3=O)cc12 [II-46] |
| 117 nM | CCN1CCC(CN(C)c2ncnc3ccc(C#CCNC(=O)c4cccn(Cc5ccc(F)c(F)c5)c4=O)cc23)C1 (stereo not drawn) [II-47] |
| 15 nM | CN(c1ccccc1)c1ncnc2ccc(C#CCNC(=O)c3cncn(Cc4ccc(F)c(F)c4)c3=O)cc12 [II-48] |
| 50 nM | CCN(CC)c1ncnc2ccc(C#CCNC(=O)c3c(C)n(CCO)n(Cc4ccc(F)c(F)c4)c3=O)cc12 [II-49] |
| 6 nM | COc1ccc(CN(C)c2ncnc3ccc(C#CCNC(=O)c4cccn(Cc5ccc(F)c(F)c5)c4=O)cc23)cc1 [II-52] |
| 486 nM | CNc1ncnc2ccc(C#CCNC(=O)c3cncn(Cc4ccccc4F)c3=O)cc12 [II-53] |
| 8 nM | CCN(CC)c1ncnc2ccc(C#CCNC(=O)c3cccn(C(C)c4ccc(F)c(F)c4)c3=O)cc12 (stereo not drawn) [II-54] |
| 60 nM | CCN(CC)c1ncnc2ccc(C#CCNC(=O)c3cccn([C@@H](C)c4ccccc4)c3=O)cc12 [II-55] |
| 6 nM | CCN(CC)c1ncnc2ccc(C#CCNC(=O)c3cccn([C@H](CO)c4ccccc4)c3=O)cc12 [II-56] |
| 357 nM | CNc1ncnc2ccc(C#CCNC(=O)c3cc(NCCN(C)C)nn(Cc4ccc(F)c(F)c4)c3=O)cc12 [II-57] |
| 10 nM | CNc1ncnc2ccc(C#CCNC(=O)c3cc(Cl)nn(Cc4ccc(F)c(F)c4)c3=O)cc12 [II-58] |
| 9 nM | CNc1ncnc2ccc(C#CCNC(=O)c3cc(OC)nn(Cc4ccc(F)c(F)c4)c3=O)cc12 [II-59] |
| 8 nM | CNc1ncnc2ccc(C#CCNC(=O)c3cccn([C@@H](C)c4ccc(F)c(F)c4)c3=O)cc12 [II-60] |
| 57 nM | CONc1ncnc2ccc(C#CCNC(=O)c3cncn(Cc4ccc(F)c(F)c4)c3=O)cc12 [II-61] |
| 16 nM | CON(C)c1ncnc2ccc(C#CCNC(=O)c3cncn(Cc4ccc(F)c(F)c4)c3=O)cc12 [II-62] |
| 58 nM | O=C(NCC#Cc1ccc2ncnc(-c3ccccc3)c2c1)c1cncn(Cc2ccc(F)c(F)c2)c1=O [II-65] |
| 98 nM | Cc1ncnc2ccc(C#CCNC(=O)c3cncn(Cc4ccc(F)c(F)c4)c3=O)cc12 [II-66] |
| 96 nM | O=C(NCC#Cc1ccc2ncnc(C3=CCNCC3)c2c1)c1cncn(Cc2ccc(F)c(F)c2)c1=O [II-67] |
| 20 nM | CN(C)CCCNC(=O)c1cnc2ccc(C#CCNC(=O)c3cncn(Cc4ccc(F)c(F)c4)c3=O)cc2c1 [II-68] |
| 21 nM | CNC(=O)c1cnc2ccc(C#CCNC(=O)c3cncn(Cc4ccc(F)c(F)c4)c3=O)c(C)c2c1 [II-69] |
| 185 nM | Cc1c(C#CCNC(=O)c2cncn(Cc3ccc(F)c(F)c3)c2=O)ccc2ncc(C(=O)N(C)C)cc12 [II-70] |
| 1000 nM | CCN(CC)C(=O)c1cnc2ccc(C#CCNC(=O)c3cncn(Cc4ccc(F)c(F)c4)c3=O)cc2c1 [II-71] |
| 45 nM | CNC(=O)c1cnc2ccc(C#CCNC(=O)c3cncn(Cc4ccc(F)c(F)c4)c3=O)cc2c1 [II-72] |
| 31 nM | O=C(NC1CC1)c1cnc2ccc(C#CCNC(=O)c3cncn(Cc4ccc(F)c(F)c4)c3=O)cc2c1 [II-73] |

| IC50 | Structure (SMILES) |
| --- | --- |
| 12 nM | CN1CCC(NC(=O)c2cnc3ccc(C#CCNC(=O)c4cncn(Cc5ccc(F)c(F)c5)c4=O)cc3c2)CC1 [II-74] |
| 31 nM | CCNC(=O)c1cnc2ccc(C#CCNC(=O)c3cncn(Cc4ccc(F)c(F)c4)c3=O)cc2c1 [II-76] |
| 53 nM | CC(C)NC(=O)c1cnc2ccc(C#CCNC(=O)c3cncn(Cc4ccc(F)c(F)c4)c3=O)cc2c1 [II-77] |
| 402 nM | CCN1CCN(C(=O)c2cnc3ccc(C#CCNC(=O)c4cncn(Cc5ccc(F)c(F)c5)c4=O)cc3c2)CC1 [II-78] |
| 201 nM | CN(C)CCCN(C)C(=O)c1cnc2ccc(C#CCNC(=O)c3cncn(Cc4ccc(F)c(F)c4)c3=O)cc2c1 [II-79] |
| 64 nM | CN1CCCC(NC(=O)c2cnc3ccc(C#CCNC(=O)c4cncn(Cc5ccc(F)c(F)c5)c4=O)cc3c2)C1 (stereo not drawn) [II-80] |
| 20 nM | CN1CC(NC(=O)c2cnc3ccc(C#CCNC(=O)c4cncn(Cc5ccc(F)c(F)c5)c4=O)cc3c2)C1 [II-81] |
| 531 nM | O=C(NCC#Cc1ccc2ncc(C(=O)N3CCOCC3)cc2c1)c1cncn(Cc2ccc(F)c(F)c2)c1=O [II-82] |
| 286 nM | O=C(NCC#Cc1ccc2ncc(C(=O)N3CCNCC3)cc2c1)c1cncn(Cc2ccc(F)c(F)c2)c1=O [II-83] |
| 405 nM | CN1CCN(C(=O)c2cnc3ccc(C#CCNC(=O)c4cncn(Cc5ccc(F)c(F)c5)c4=O)cc3c2)CC1 [II-84] |
| 1000 nM | COCCN1CCN(C(=O)c2cnc3ccc(C#CCNC(=O)c4cncn(Cc5ccc(F)c(F)c5)c4=O)cc3c2)CC1 [II-85] |
| 355 nM | CN(C)C(=O)c1cnc2ccc(C#CCNC(=O)c3cncn(Cc4ccc(F)c(F)c4)c3=O)cc2c1 [II-86] |
| 24 nM | CN1CCC(NC(=O)c2cnc3ccc(C#CCNC(=O)c4cncn(Cc5ccc(F)c(F)c5)c4=O)cc3c2)C1 (stereo not drawn) [II-87] |
| 19 nM | O=C(NCC#Cc1ccc2nccc(-c3cc[nH]c3)c2c1)c1cncn(Cc2ccc(F)c(F)c2)c1=O [II-88] |
| 35 nM | O=C(NCC#Cc1ccc2nccc(-c3cn[nH]c3)c2c1)c1cncn(Cc2ccc(F)c(F)c2)c1=O [II-89] |
| 86 nM | O=C(NCC#Cc1ccc2nccc(C3=CCNCC3)c2c1)c1cncn(Cc2ccc(F)c(F)c2)c1=O [II-90] |
| 14 nM | O=C(NCC#Cc1ccc2nccc(C3=CCCNC3)c2c1)c1cncn(Cc2ccc(F)c(F)c2)c1=O [II-91] |
| 56 nM | Cc1ccnc2ccc(C#CCNC(=O)c3cncn(Cc4ccc(F)c(F)c4)c3=O)cc12 [II-92] |
| 24 nM | Cc1n[nH]cc1-c1ccnc2ccc(C#CCNC(=O)c3cncn(Cc4ccc(F)c(F)c4)c3=O)cc12 [II-93] |
| 544 nM | CN(c1c(C#N)cnc2ccc(C#CCNC(=O)c3cccn(Cc4ccc(F)c(F)c4)c3=O)cc12)C1CCCCC1 [II-95] |
| 607 nM | N#Cc1cnc2ccc(C#CCNC(=O)c3cccn(Cc4ccc(F)c(F)c4)c3=O)cc2c1NCCc1ccccc1 [II-96] |
| 1060 nM | N#Cc1cnc2ccc(C#CCNC(=O)c3cccn(Cc4ccc(F)c(F)c4)c3=O)cc2c1NCC1CCCCC1 [II-97] |
| 184 nM | CN(Cc1ccccc1)c1c(C#N)cnc2ccc(C#CCNC(=O)c3cccn(Cc4ccc(F)c(F)c4)c3=O)cc12 [II-98] |
| 683 nM | CN(CC1CCCCC1)c1c(C#N)cnc2ccc(C#CCNC(=O)c3cccn(Cc4ccc(F)c(F)c4)c3=O)cc12 [II-99] |
| 871 nM | N#Cc1cnc2ccc(C#CCNC(=O)c3cccn(Cc4ccc(F)c(F)c4)c3=O)cc2c1NCc1ccccc1 [II-102] |
| 414 nM | CN(CCc1ccccc1)c1c(C#N)cnc2ccc(C#CCNC(=O)c3cccn(Cc4ccc(F)c(F)c4)c3=O)cc12 [II-106] |

| Structure (SMILES) | IC50 |
| --- | --- |
| CC1(O)CCN(c2ncnc3ccc(C#CCNC(=O)c4cccn(Cc5ccc(F)c(F)c5)c4=O)cc23)CC1 [II-41] | 61 nM |
| CN(C)c1ncnc2ccc(C#CCNC(=O)c3cccn(Cc4cc[nH]n4)c3=O)cc12 [II-42] | 697 nM |
| CN(C)C(=O)CNc1ncnc2ccc(C#CCNC(=O)c3cccn(Cc4ccc(F)c(F)c4)c3=O)cc12 [II-50] | 182 nM |
| CNc1ncnc2ccc(C#CCNC(=O)c3cccn(Cc4ccoc4)c3=O)cc12 [II-51] | 770 nM |
| CN(C)c1c(C#N)cnc2ccc(C#CCNC(=O)c3cccn(Cc4ccc(F)c(F)c4)c3=O)cc12 [II-94] | 27 nM |
| CCN(CC)c1c(C#N)cnc2ccc(C#CCNC(=O)c3cccn(Cc4ccc(F)c(F)c4)c3=O)cc12 [II-100] | 276 nM |
| CC(C)N(C)c1c(C#N)cnc2ccc(C#CCNC(=O)c3cccn(Cc4ccc(F)c(F)c4)c3=O)cc12 [II-101] | 148 nM |
| CCN(C)c1c(C#N)cnc2ccc(C#CCNC(=O)c3cccn(Cc4ccc(F)c(F)c4)c3=O)cc12 [II-103] | 77 nM |
| CC(C)Nc1c(C#N)cnc2ccc(C#CCNC(=O)c3cccn(Cc4ccc(F)c(F)c4)c3=O)cc12 [II-104] | 147 nM |
| CNc1c(C#N)cnc2ccc(C#CCNC(=O)c3cccn(Cc4ccc(F)c(F)c4)c3=O)cc12 [II-105] | 46 nM |
